Legend:
[1] = system: liver; settings: classification of the substance (Cr+/Cr−); cited from earlier work
[2] = classification of the substance (M+/M−); cited from earlier work
[3] = system: mRNA expressed from the genes (A) to (D) in rat liver; experiment: Behavior of genes (mRNA expression level, oligo-DNA microarray) in rat liver after 28-day oral administration; format: in vivo; settings: for Behavior of gene caused by administration of chemical substance, Gene No. 4846 / Behavior of gene caused by administration of chemical substance, Gene No. 2026 / Behavior of gene caused by administration of chemical substance, Gene No. 4218 / Behavior of gene caused by administration of chemical substance, Gene No. 6182 / Behavior of gene caused by administration of chemical substance, Gene No. 5600: gene group (A); for Behavior of gene caused by administration of chemical substance, Gene No. 4846: Unigene No. Rn.144554; for Behavior of gene caused by administration of chemical substance, Gene No. 2026 / Behavior of gene caused by administration of chemical substance, Gene No. 4218: Unigene No. Rn.167075; for Behavior of gene caused by administration of chemical substance, Gene No. 6182: Unigene No. Rn.5834; for Behavior of gene caused by administration of chemical substance, Gene No. 5600: Unigene No. Rn.9836; for Behavior of gene caused by administration of chemical substance, Gene No. 1494 / Behavior of gene caused by administration of chemical substance, Gene No. 2045 / Behavior of gene caused by administration of chemical substance, Gene No. 2203: gene group (B); for Behavior of gene caused by administration of chemical substance, Gene No. 1494: Unigene No. Rn.1430; for Behavior of gene caused by administration of chemical substance, Gene No. 2045: Unigene No. Rn.19329; for Behavior of gene caused by administration of chemical substance, Gene No. 2203: Unigene No. Rn.21240; for Behavior of gene caused by administration of chemical substance, Gene No. 533 / Behavior of gene caused by administration of chemical substance, Gene No. 725 / Behavior of gene caused by administration of chemical substance, Gene No. 1163 / Behavior of gene caused by administration of chemical substance, Gene No. 4973 / Behavior of gene caused by administration of chemical substance, Gene No. 4095 / Behavior of gene caused by administration of chemical substance, Gene No. 1334 / Behavior of gene caused by administration of chemical substance, Gene No. 6620 / Behavior of gene caused by administration of chemical substance, Gene No. 6303 / Behavior of gene caused by administration of chemical substance, Gene No. 5878 / Behavior of gene caused by administration of chemical substance, Gene No. 1131 / Behavior of gene caused by administration of chemical substance, Gene No. 1562 / Behavior of gene caused by administration of chemical substance, Gene No. 1741 / Behavior of gene caused by administration of chemical substance, Gene No. 893 / Behavior of gene caused by administration of chemical substance, Gene No. 6026 / Behavior of gene caused by administration of chemical substance, Gene No. 154 / Behavior of gene caused by administration of chemical substance, Gene No. 1993 / Behavior of gene caused by administration of chemical substance, Gene No. 813 / Behavior of gene caused by administration of chemical substance, Gene No. 2494 / Behavior of gene caused by administration of chemical substance, Gene No. 2546 / Behavior of gene caused by administration of chemical substance, Gene No. 3776 / Behavior of gene caused by administration of chemical substance, Gene No. 3929 / Behavior of gene caused by administration of chemical substance, Gene No. 1119 / Behavior of gene caused by administration of chemical substance, Gene No. 6742 / Behavior of gene caused by administration of chemical substance, Gene No. 5634: gene group (C); for Behavior of gene caused by administration of chemical substance, Gene No. 533: Unigene No. Rn.106184; for Behavior of gene caused by administration of chemical substance, Gene No. 725: Unigene No. Rn.108075; for Behavior of gene caused by administration of chemical substance, Gene No. 1163: Unigene No. Rn.11766; for Behavior of gene caused by administration of chemical substance, Gene No. 4973: Unigene No. Rn.118529; for Behavior of gene caused by administration of chemical substance, Gene No. 4095: Unigene No. Rn.119024; for Behavior of gene caused by administration of chemical substance, Gene No. 1334 / Behavior of gene caused by administration of chemical substance, Gene No. 6620: Unigene No. Rn.120914; for Behavior of gene caused by administration of chemical substance, Gene No. 6303: Unigene No. Rn.123063; for Behavior of gene caused by administration of chemical substance, Gene No. 5878: Unigene No. Rn.143213; for Behavior of gene caused by administration of chemical substance, Gene No. 1131: Unigene No. Rn.144946; for Behavior of gene caused by administration of chemical substance, Gene No. 1562: Unigene No. Rn.14744; for Behavior of gene caused by administration of chemical substance, Gene No. 1741: Unigene No. Rn.1647; for Behavior of gene caused by administration of chemical substance, Gene No. 893: Unigene No. Rn.164817; for Behavior of gene caused by administration of chemical substance, Gene No. 6026: Unigene No. Rn.167685; for Behavior of gene caused by administration of chemical substance, Gene No. 154: Unigene No. Rn.185941; for Behavior of gene caused by administration of chemical substance, Gene No. 1993: Unigene No. Rn.18728; for Behavior of gene caused by administration of chemical substance, Gene No. 813: Unigene No. Rn.201760; for Behavior of gene caused by administration of chemical substance, Gene No. 2494: Unigene No. Rn.23969; for Behavior of gene caused by administration of chemical substance, Gene No. 2546: Unigene No. Rn.24561; for Behavior of gene caused by administration of chemical substance, Gene No. 3776: Unigene No. Rn.43232; for Behavior of gene caused by administration of chemical substance, Gene No. 3929: Unigene No. Rn.4620; for Behavior of gene caused by administration of chemical substance, Gene No. 1119: Unigene No. Rn.9757; for Behavior of gene caused by administration of chemical substance, Gene No. 6742: Unigene No. Rn.9779; for Behavior of gene caused by administration of chemical substance, Gene No. 5634: Unigene No. Rn.9862; for Behavior of gene caused by administration of chemical substance, Gene No. 5726: gene group (D), Unigene No. Rn.9939
Procedure, shortened: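 Oral gavage, once daily × 28 days; male F344 SPF rats, 5 wk, n=4/group; vehicle controls given equal solvent volume. Liver excised day 28, total RNA purified. Significance: ≥1.5× or ≤1/1.5 of vehicle, direction concordant with other carcinogens.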

[4] = system: rodent; settings: classification of the substance (C+/C−); cited from earlier work

| SMILES | Liver carcinogenicity [1] | Mutagenicity by Ames test [2] | Behavior of gene caused by administration of chemical substance, Gene No. 4846 [3] | Behavior of gene caused by administration of chemical substance, Gene No. 2026 [3] | Behavior of gene caused by administration of chemical substance, Gene No. 4218 [3] | Behavior of gene caused by administration of chemical substance, Gene No. 6182 [3] | Behavior of gene caused by administration of chemical substance, Gene No. 5600 [3] | Behavior of gene caused by administration of chemical substance, Gene No. 1494 [3] | Behavior of gene caused by administration of chemical substance, Gene No. 2045 [3] | Behavior of gene caused by administration of chemical substance, Gene No. 2203 [3] | Behavior of gene caused by administration of chemical substance, Gene No. 533 [3] | Behavior of gene caused by administration of chemical substance, Gene No. 725 [3] | Behavior of gene caused by administration of chemical substance, Gene No. 1163 [3] | Behavior of gene caused by administration of chemical substance, Gene No. 4973 [3] | Behavior of gene caused by administration of chemical substance, Gene No. 4095 [3] | Behavior of gene caused by administration of chemical substance, Gene No. 1334 [3] | Behavior of gene caused by administration of chemical substance, Gene No. 6620 [3] | Behavior of gene caused by administration of chemical substance, Gene No. 6303 [3] | Behavior of gene caused by administration of chemical substance, Gene No. 5878 [3] | Behavior of gene caused by administration of chemical substance, Gene No. 1131 [3] | further results |
| --- | --- | --- | --- | --- | --- | --- | --- | --- | --- | --- | --- | --- | --- | --- | --- | --- | --- | --- | --- | --- | --- |
| Nc1cc([N+](=O)[O-])ccc1C(=O)O [TS082, 4-Nitroanthranilic acid] | Cr− | M+ | − | − | − | + | − | + | − | − | + | − | − | + | + | − | − | + | − | + | Behavior of gene caused by administration of chemical substance, Gene No. 1562 [3]: +; Behavior of gene caused by administration of chemical substance, Gene No. 1741 [3]: +; Behavior of gene caused by administration of chemical substance, Gene No. 893 [3]: +; Behavior of gene caused by administration of chemical substance, Gene No. 6026 [3]: −; Behavior of gene caused by administration of chemical substance, Gene No. 154 [3]: +; Behavior of gene caused by administration of chemical substance, Gene No. 1993 [3]: +; Behavior of gene caused by administration of chemical substance, Gene No. 813 [3]: −; Behavior of gene caused by administration of chemical substance, Gene No. 2494 [3]: −; Behavior of gene caused by administration of chemical substance, Gene No. 2546 [3]: +; Behavior of gene caused by administration of chemical substance, Gene No. 3776 [3]: +; Behavior of gene caused by administration of chemical substance, Gene No. 3929 [3]: +; Behavior of gene caused by administration of chemical substance, Gene No. 1119 [3]: +; Behavior of gene caused by administration of chemical substance, Gene No. 6742 [3]: +; Behavior of gene caused by administration of chemical substance, Gene No. 5634 [3]: +; Behavior of gene caused by administration of chemical substance, Gene No. 5726 [3]: −; Carcinogenicity [4]: C− |
| O=C([O-])c1ccccc1.[Na+] [TS084, Sodium benzoate] | Cr− | M− | − | − | − | + | − | + | − | − | + | − | − | + | − | − | − | − | − | − | Behavior of gene caused by administration of chemical substance, Gene No. 1562 [3]: −; Behavior of gene caused by administration of chemical substance, Gene No. 1741 [3]: −; Behavior of gene caused by administration of chemical substance, Gene No. 893 [3]: −; Behavior of gene caused by administration of chemical substance, Gene No. 6026 [3]: −; Behavior of gene caused by administration of chemical substance, Gene No. 154 [3]: −; Behavior of gene caused by administration of chemical substance, Gene No. 1993 [3]: −; Behavior of gene caused by administration of chemical substance, Gene No. 813 [3]: −; Behavior of gene caused by administration of chemical substance, Gene No. 2494 [3]: −; Behavior of gene caused by administration of chemical substance, Gene No. 2546 [3]: −; Behavior of gene caused by administration of chemical substance, Gene No. 3776 [3]: −; Behavior of gene caused by administration of chemical substance, Gene No. 3929 [3]: −; Behavior of gene caused by administration of chemical substance, Gene No. 1119 [3]: −; Behavior of gene caused by administration of chemical substance, Gene No. 6742 [3]: +; Behavior of gene caused by administration of chemical substance, Gene No. 5634 [3]: −; Behavior of gene caused by administration of chemical substance, Gene No. 5726 [3]: −; Carcinogenicity [4]: C− |
